{"source": "patent EP0998912B1", "about": "“Use of peracids for hand's disinfection or decontamination” (Bode Chemie GmbH & Co., priority 1998, dated 2000)", "key": {"[1]": {"test": "Skin tolerance observed during the hand disinfection and decontamination tests", "format": "in vivo", "text": "(§1) Mit dieser Lösung wurde der Test zur chirurgischen Händedesinfektion entsprechend den Richtlinien der DGHM (Stand: 01.01.1981, Versuch II-2) durchgeführt. Bei diesem Versuch werden die Hände durch Einreiben 3 Minuten feucht gehalten und gegen ein Standardalkohol (n-Propanol 60 Vol.-%) nach 5 Minuten getestet. Der Test gilt als bestanden, wenn die residente Hautflora durch das Testpräparat gleich oder stärker reduziert wird als durch den Standard.\nMit einer solchen Lösung, die 4 Gew.-% des Wirkstoffes MMPP enthält, wurde ein Test zur Händedekontamination nach DGHM (Stand: 08.07.1986, Versuch 11) durchgeführt. Bei diesem Verfahren wird die Fähigkeit getestet, die transiente Hautflora zu reduzieren. Der Test gilt als bestanden, wenn das Präparat innerhalb von 30 Sekunden eine E. coli-Kontamination um 3,5 logarithmische Stufen entsprechend 99,9684 % reduziert.\nMit diesen Pasten wurden entsprechend Beispiel 2 die Versuche zur Händedekontamination durchgeführt. Die Hände werden 30 Sekunden mit 1,5 ml der Pasten eingerieben und dann mit Wasser entsprechend der Vorschrift aufgeschäumt.\nMit der Zubereitung aus Beispiel 2 wurde der Test zur hygienischen Händedesinfektion gemäß den Richtlinien der DGHM (Stand: 01.01.1981, Versuch II-1) durchgeführt. […]"}, "[2]": {"system": "Bakterien", "test": "Comparative trials on germ reduction by aqueous MMPP solutions", "settings": "0,1 bis 10 gewichts-%-ige aqueous solutions, about 30 Sekunden Einwirkzeit"}, "[3]": {"system": "residente Hautflora", "test": "Surgical hand disinfection test, DGHM guidelines (01.01.1981, Versuch II-2)", "format": "in vivo", "settings": "5 gew.-%ige solution in demineralised water, hands kept moist 3 Minuten; standard n-Propanol 60 Vol.-% 5 Minuten", "text": "as §1"}, "[4]": {"system": "transiente Flora (E. coli)", "test": "Hygienic hand disinfection test, DGHM guidelines (01.01.1981, Versuch II-1)", "format": "in vivo", "settings": "1 bis 10 gewichts-%-ige purely aqueous solutions, 30 bis 60 Sekunden; compared with requirements for 60 Volumen-% Ethanol or Isopropanol", "method": "Mit der Zubereitung aus Beispiel 2 wurde der Test zur hygienischen Händedesinfektion gemäß den Richtlinien der DGHM (Stand: 01.01.1981, Versuch II-1) durchgeführt. Bei diesem Versuch muß die transiente Flora (E. coli) in 30 Sekunden gleich oder stärker reduziert werden als mit einem Standardalkohol (Isopropanol 60 Vol.-%) in 1 Minute."}}, "data": [{"smiles": "O=C(O)c1ccccc1C(=O)OO", "note": "[MMPP, Magnesium-Monoperoxidophthalat]", "values": [{"measurement": "Hautverträglichkeit", "setting": "[1]; 0,1 bis 10 gewichts-%-ige aqueous solutions, Vergleichsversuche", "result": "hervorragend hautverträglich"}, {"measurement": "Hautunverträglichkeiten", "setting": "[1]; Beispiel 1, 5 gew.-%ige MMPP-Lösung, surgical hand disinfection", "result": "keine Hautunverträglichkeiten"}, {"measurement": "Keimreduktion", "setting": "[2]", "result": "> 4", "unit": "log-Stufen"}, {"measurement": "Keimreduktion", "setting": "[2]; equivalent of the log steps", "result": "> 99,99%"}, {"measurement": "Reduktion der residenten Hautflora gleich oder stärker als durch den Standard", "setting": "[3]", "result": "erfüllt diese Anforderungen"}, {"measurement": "Keimreduktion bei der hygienischen Händedesinfektion", "setting": "[4]", "result": "vergleichbare Keimreduktion"}]}]}
